Measured values published in the supplement of paper PMC10307832.

Legend:
Assay in all cases: relative viability (nuclei count vs DMSO), 5 days (fraction); higher = more cells survive
Linsitinib + Phenformin = compound: C[C@]1(O)C[C@@H](c2nc(-c3ccc4ccc(-c5ccccc5)nc4c3)c3c(N)nccn32)C1 [Linsitinib] + N=C(N)NC(=N)NCCc1ccccc1 [Phenformin] (partner 250 µM)
In short: (§1)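 For relative viability, nuclei counts in treated wells were divided by those in vehicle wells. Lung cancer cell lines had been pin-tool dosed in 1536-well plates the day after seeding and cultured for 5 days, then fixed and stained in one step (final 0.05% Triton X-100, 1% formaldehyde, 1 ug/ml Hoechst) and imaged at 4×. Doses were one drug alone or a fixed anchor-drug dose plus five library-drug doses (not always all listed) in √10 steps, and values are duplicate-plate medians.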

Ispinesib + OSI-027 = compound: Cc1ccc(C(=O)N(CCCN)[C@@H](c2nc3cc(Cl)ccc3c(=O)n2Cc2ccccc2)C(C)C)cc1 [Ispinesib] + COc1cccc2cc(-c3nc([C@H]4CC[C@H](C(=O)O)CC4)n4ncnc(N)c34)[nH]c12 [OSI-027] (partner 0.5 µM)
In short: as §1

Linsitinib + Alpelisib = compound: C[C@]1(O)C[C@@H](c2nc(-c3ccc4ccc(-c5ccccc5)nc4c3)c3c(N)nccn32)C1 [Linsitinib] + Cc1nc(NC(=O)N2CCC[C@H]2C(N)=O)sc1-c1ccnc(C(C)(C)C(F)(F)F)c1 [Alpelisib] (partner 2 µM)
In short: as §1

Ispinesib + Pictilisib = compound: Cc1ccc(C(=O)N(CCCN)[C@@H](c2nc3cc(Cl)ccc3c(=O)n2Cc2ccccc2)C(C)C)cc1 [Ispinesib] + CS(=O)(=O)N1CCN(Cc2cc3nc(-c4cccc5[nH]ncc45)nc(N4CCOCC4)c3s2)CC1 [Pictilisib] (partner 1 µM)
In short: as §1

| Cell Line | relative viability (Linsitinib + Phenformin; first compound 0.01 µM) | relative viability (Linsitinib + Phenformin; first compound 0.03162 µM) | relative viability (Linsitinib + Phenformin; first compound 0.1 µM) | relative viability (Linsitinib + Phenformin; first compound 1 µM) | relative viability (Ispinesib + OSI-027; first compound 0.001 µM) | relative viability (Ispinesib + OSI-027; first compound 0.003162 µM) | relative viability (Ispinesib + OSI-027; first compound 0.01 µM) | relative viability (Ispinesib + OSI-027; first compound 0.03162 µM) | relative viability (Ispinesib + OSI-027; first compound 0.1 µM) | relative viability (Linsitinib + Alpelisib; first compound 0.01 µM) | relative viability (Linsitinib + Alpelisib; first compound 0.03162 µM) | relative viability (Linsitinib + Alpelisib; first compound 0.1 µM) | relative viability (Linsitinib + Alpelisib; first compound 0.3162 µM) | relative viability (Linsitinib + Alpelisib; first compound 1 µM) | relative viability (Linsitinib + Phenformin; first compound 0.3162 µM) | relative viability (Ispinesib + Pictilisib; first compound 0.001 µM) | relative viability (Ispinesib + Pictilisib; first compound 0.003162 µM) | relative viability (Ispinesib + Pictilisib; first compound 0.01 µM) | relative viability (Ispinesib + Pictilisib; first compound 0.03162 µM) | relative viability (Ispinesib + Pictilisib; first compound 0.1 µM) |
| --- | --- | --- | --- | --- | --- | --- | --- | --- | --- | --- | --- | --- | --- | --- | --- | --- | --- | --- | --- | --- |
| NCI-H522 | 0.589 | 0.662 | 0.567 | 0.613 | 0.746 | 0.759 | 0.715 | 0.555 | 0.414 |  |  |  |  |  |  |  |  |  |  |  |
| PC-3 [JPC-3] | 0.464 | 0.48 | 0.515 | 0.45 | 0.703 | 0.841 | 0.851 | 0.627 | 0.431 | 1.03 | 1.05 | 1.03 | 1.02 | 0.924 | 0.436 | 0.751 | 0.812 | 0.876 | 0.628 | 0.53 |
| NCI-H1703 |  |  |  |  |  |  |  |  |  | 0.363 |  | 0.346 | 0.227 | 0.219 |  | 0.248 | 0.218 | 0.181 | 0.123 | 0.136 |
| EPLC-272H | 0.369 | 0.335 |  | 0.312 | 0.242 | 0.281 | 0.238 | 0.167 | 0.152 | 0.909 | 0.942 | 0.87 |  | 0.925 |  | 0.295 | 0.337 | 0.338 | 0.258 | 0.142 |
| NCI-H1792 | 0.453 | 0.419 | 0.29 | 0.073 | 0.889 | 1.09 | 0.743 | 0.862 | 0.356 | 0.803 | 0.751 | 0.615 | 0.606 | 0.538 | 0.166 | 0.289 | 0.303 | 0.254 | 0.177 | 0.302 |
| NCI-H2085 | 0.763 | 0.723 | 0.727 | 0.574 | 0.815 | 0.715 | 0.824 | 0.541 | 0.264 | 0.886 | 1.12 | 1.06 | 0.888 | 0.922 | 0.663 | 0.485 | 0.406 | 0.504 | 0.43 | 0.307 |
| LK-2 | 0.41 | 0.498 | 0.515 | 0.187 | 0.2 | 0.256 | 0.194 | 0.176 | 0.213 | 1.04 | 1.12 | 1.33 | 0.804 | 1.11 | 0.201 | 0.645 | 0.632 | 0.744 | 0.438 | 0.443 |
| NCI-H1395 | 0.442 | 0.462 | 0.454 | 0.423 | 0.642 | 0.681 | 0.67 | 0.384 | 0.316 | 0.945 | 0.915 | 1.24 | 0.962 | 0.957 | 0.468 | 0.604 | 0.663 | 0.63 | 0.368 | 0.383 |
| ABC-1 | 0.241 | 0.209 | 0.238 | 0.233 | 0.488 | 0.524 | 0.58 | 0.203 | 0.283 | 0.925 | 0.726 | 0.912 | 0.76 | 0.719 | 0.237 | 0.656 | 0.678 | 0.692 | 0.301 | 0.339 |
| SW 900 | 0.701 | 0.753 | 0.553 | 0.37 | 0.751 | 0.617 | 0.553 | 0.345 | 0.225 |  |  |  |  |  | 0.433 |  |  |  |  |  |
| NCI-H2342 | 0.46 | 0.584 | 0.527 | 0.488 | 0.631 | 0.741 | 0.593 | 0.48 | 0.456 |  |  |  |  |  | 0.511 |  |  |  |  |  |
| EBC-1 |  |  |  |  |  |  |  |  |  | 0.758 | 0.841 | 1.05 | 0.601 | 0.814 |  | 0.448 | 0.38 | 0.328 | 0.179 | 0.191 |
| ChaGo-K-1 | 0.527 | 0.515 | 0.499 | 0.457 | 0.529 | 0.627 | 0.582 | 0.627 | 0.222 |  |  |  |  |  | 0.332 | 0.895 | 1.3 | 0.659 | 0.397 | 0.312 |
| NCI-H1299 |  |  |  |  |  |  |  |  |  | 1.05 | 1.07 | 1.12 | 1.01 | 1.04 |  | 0.951 | 0.727 | 0.789 | 0.37 | 0.152 |
| NCI-H1623 | 0.628 | 0.618 | 0.581 | 0.519 | 0.433 | 0.439 | 0.451 | 0.406 | 0.4 |  |  |  |  |  |  |  |  |  |  |  |
| IA-LM |  |  |  |  |  |  |  |  |  | 0.829 | 0.809 | 0.743 | 0.387 | 0.51 |  | 0.484 | 0.352 | 0.278 | 0.173 | 0.121 |
| A549 | 0.2 | 0.264 | 0.173 | 0.151 |  |  |  |  |  | 0.744 | 0.668 | 0.634 | 0.423 | 0.421 | 0.0926 | 0.674 | 0.525 | 0.831 | 0.173 | 0.158 |
| Calu-6 |  |  |  |  |  |  |  |  |  | 1.01 | 0.919 | 1.04 | 1.03 | 0.794 |  | 1.09 | 0.727 | 0.186 | 0.113 | 0.155 |
| NCI-H1650 | 0.477 | 0.406 | 0.489 | 0.254 | 0.573 | 0.718 | 0.623 | 0.174 | 0.271 |  |  |  |  |  | 0.272 | 0.586 | 0.576 | 0.338 | 0.164 | 0.266 |
| NCI-H1648 |  |  |  |  | 0.274 | 0.312 | 0.212 | 0.226 | 0.238 |  |  |  |  |  |  |  |  |  |  |  |
